Structures are written as SMILES. Where a name gives a salt, the structure may show the parent alone.

The target of the test is T1, TLR7/NFKb HEK cells (Homo sapiens, UniProt Q9NYK1).
T1 construct: expressed in transfected cells; host or cells: HEK cells (TLR7/NFKb reporter line)
T1 sequence (Q9NYK1 27-1049): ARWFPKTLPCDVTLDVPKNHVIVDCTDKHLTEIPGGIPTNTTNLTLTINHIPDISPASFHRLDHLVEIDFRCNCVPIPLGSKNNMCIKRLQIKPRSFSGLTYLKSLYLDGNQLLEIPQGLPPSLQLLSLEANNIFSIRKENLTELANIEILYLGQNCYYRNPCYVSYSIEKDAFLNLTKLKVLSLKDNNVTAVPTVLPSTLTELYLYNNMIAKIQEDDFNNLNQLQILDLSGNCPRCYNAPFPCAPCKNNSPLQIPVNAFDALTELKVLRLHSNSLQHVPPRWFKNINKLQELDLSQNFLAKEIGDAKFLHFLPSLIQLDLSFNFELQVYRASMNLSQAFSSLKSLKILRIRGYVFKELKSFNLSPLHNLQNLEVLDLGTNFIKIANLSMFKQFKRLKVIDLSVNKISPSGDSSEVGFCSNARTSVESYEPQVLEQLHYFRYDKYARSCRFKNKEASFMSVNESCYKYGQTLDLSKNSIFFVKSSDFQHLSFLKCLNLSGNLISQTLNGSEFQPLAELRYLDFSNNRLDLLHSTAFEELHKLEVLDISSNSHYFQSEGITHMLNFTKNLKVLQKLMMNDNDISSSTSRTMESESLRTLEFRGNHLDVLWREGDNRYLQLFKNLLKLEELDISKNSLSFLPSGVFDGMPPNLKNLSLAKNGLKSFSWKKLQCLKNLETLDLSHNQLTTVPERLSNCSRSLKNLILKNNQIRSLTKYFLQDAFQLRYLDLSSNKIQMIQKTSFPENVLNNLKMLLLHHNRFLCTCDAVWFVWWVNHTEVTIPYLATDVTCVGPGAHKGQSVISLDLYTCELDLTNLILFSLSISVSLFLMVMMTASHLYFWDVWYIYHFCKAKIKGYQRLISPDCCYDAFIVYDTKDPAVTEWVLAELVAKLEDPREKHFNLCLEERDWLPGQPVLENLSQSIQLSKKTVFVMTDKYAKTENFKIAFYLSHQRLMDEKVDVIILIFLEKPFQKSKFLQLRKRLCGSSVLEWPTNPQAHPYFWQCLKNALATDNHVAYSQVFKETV
Briefly: HEK Cell Assay (TLR7/NFKb reporter, Steady-Glo luciferase readout). Format: cell-based. Particulars: 30 min compound preincubation, then R*48 agonist for 5 hours, read-out: Potency. The essentials: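 Steady-Glo luminescence after 5 h stimulation with R*48 agonist, following 30 min compound preincubation. Assay run in HEK cells carrying a TLR7/NFKb luciferase reporter, plated at 5000 cells/well and grown 24 h at 37° C (10% CO2) before treatment.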
For `C[C@H]1C[C@@H](NC(=O)COC(C)(C)C)CN(c2ccc(C#N)c3nccnc23)C1` [Compound 163, 2-(tert-butoxy)-N-[(3R,5S)-1-(8-cyanoquinoxalin-5-yl)-5-methylpiperidin-3-yl]acetamide], the IC50 is less than 1000 nM.

For `C[C@H]1C[C@@H](NC(=O)C(N)C(F)(F)F)CN(c2ccc(C(N)=O)c3ncccc23)C1` (single isomer, unassigned) [Compound 184], the IC50 was greater than 10000 nM.

With `C[C@H]1C[C@@H](NC(=O)CC2CCN(C)CC2)CN(c2ccc(C#N)c3nccnc23)C1` [Compound 232, N-[(3R,5S)-1-(8-cyanoquinoxalin-5-yl)-5-methylpiperidin-3-yl]-2-(1-methylpiperidin-4-yl)acetamide], the IC50 is less than 1000 nM.

`CC(O)C(=O)N[C@@H]1C[C@H](C)CN(c2ccc(C(F)F)c3ncccc23)C1` (stereo partly drawn) [Compound 302, N-[(3R,5S)-1-[8-(difluoromethyl)quinolin-5-yl]-5-methylpiperidin-3-yl]-2-hydroxypropanamide]: the IC50 fell in the range of 1000 to 10000 nM.

As to `C[C@H]1C[C@@H](NC(=O)CC(O)C(C)(C)C)CN(c2ccnc3nccnc23)C1` (single isomer, unassigned) [Compound 149], the IC50 was greater than 10000 nM.

Take `N#Cc1ccc(N2CC(NC(=O)C(N)C3CC3)CC(C(F)(F)F)C2)c2cccnc12` (mixture of isomers) [Compound 486, rac-(R)-2-Amino-N-[(3R,5S)-1-(8-cyano-quinolin-5-yl)-5-trifluoromethyl-piperidin-3-yl]-2-cyclopropyl-acetamide]: the IC50 was less than 1000 nM.

Regarding `C[C@H]1C[C@@H](NC(=O)Cc2cn(C)cn2)CN(c2ccnc3nccnc23)C1` [Compound 133, N-[(3R,5S)-5-methyl-1-[pyrido[2,3-b]pyrazin-8-yl]piperidin-3-yl]-2-(1-methyl-1H-imidazol-4-yl)acetamide], the IC50 is greater than 10000 nM.

For the compound `C#CCC(=O)N[C@@H]1C[C@H](C)CN(c2ccc(C(F)(F)F)c3ncccc23)C1` [Compound 473, But-3-ynoic acid [(3R,5S)-5-methyl-1-(8-trifluoromethyl-quinolin-5-yl)-piperidin-3-yl]-amide], the IC50 is less than 1000 nM.

Turning to `C[C@H]1C[C@@H](NC(=O)CC(C)(C)C)CN(c2ccnc3nccnc23)C1` [Compound 41, 3,3-dimethyl-N-((3R,5S)-5-methyl-1-(pyrido[2,3-b]pyrazin-8-yl)piperidin-3-yl)butanamide], the IC50 lay in the range of 1000 to 10000 nM.

Turning to `C[C@H]1C[C@@H](NC2CCN(C)C2=O)CN(c2ccc(Cl)c3ncccc23)C1` (single isomer, unassigned) [Compound 260], the IC50 was less than 1000 nM.

With `N#Cc1ccc(N2C[C@@H](NC(=O)CC(F)(F)F)C[C@@H](C(F)(F)F)C2)c2cccnc12` (relative stereo) [Compound 428, cis-N-[1-(8-Cyano-quinolin-5-yl)-5-trifluoromethyl-piperidin-3-yl]-3,3,3-trifluoro-propionamide], the IC50 is less than 1000 nM.

Take `CCN(CC)C(=O)CCC(=O)N[C@@H]1C[C@H](C(F)(F)F)CN(c2ccc(C#N)c3ncccc23)C1` [Compound 579, N-[(3R,5S)-1-(8-Cyano-quinolin-5-yl)-5-trifluoromethyl-piperidin-3-yl]-N′,N′-diethyl-succinamide]: the IC50 is 1000 to 10000 nM.

Turning to `C[C@H]1C[C@@H](N)CN(c2ncc(C#N)c3ncncc23)C1` [Compound 458, 5-((3R,5S)-3-Amino-5-methyl-piperidin-1-yl)-pyrido[4,3-d]pyrimidine-8-carbonitrile hydrochloride], the IC50 was greater than 10000 nM.

`C[C@H]1C[C@@H](N)CN(c2ccc(C(F)(F)F)c3nccnc23)C1` [Compound 77, (3R,5S)-5-methyl-1-[8-(trifluoromethyl)quinoxalin-5-yl]piperidin-3-amine]: the IC50 was less than 1000 nM.

For `CCNC(=O)C1CCN(C[C@H]2CN(c3ccnc4nccnc34)C[C@@H](C)O2)CC1` [Compound 62, N-ethyl-1-(((2S,6R)-6-methyl-4-(pyrido[2,3-b]pyrazin-8-yl)morpholin-2-yl)methyl)piperidine-4-carboxamide], the IC50 is 1000 to 10000 nM.

On to `CN1CCN(CCNC(=O)C2CCN(c3ccc(C#N)c4ncccc34)CC2)CC1` [Compound 421, 1-(8-Cyano-quinolin-5-yl)-piperidine-4-carboxylic Acid [2-(4-methyl-piperazin-1-yl)-ethyl]-amide], for which the IC50 was less than 1000 nM.

As to `CC1(C)C[C@@H](NC(=O)CO)CN(c2ccc(C#N)c3nccnc23)C1` [Compound 218, N-[(3R)-1-(8-cyanoquinoxalin-5-yl)-5,5-dimethylpiperidin-3-yl]-2-hydroxyacetamide], the IC50 lay in the range of 1000 to 10000 nM.

As to `C[C@@H]1CN(c2ccnc3nccnc23)C[C@H](C(=O)NC2CCN(C)CC2)O1` [Compound 65, (2R,6R)-6-methyl-N-(1-methylpiperidin-4-yl)-4-(pyrido[2,3-b]pyrazin-8-yl)morpholine-2-carboxamide], the IC50 is less than 1000 nM.

For `CC(C)[C@H](O)C(=O)N[C@@H]1C[C@H](C)CN(c2ccc(C(F)(F)F)c3ncccc23)C1` [Compound 194, (2S)-2-hydroxy-3-methyl-N-[(3R,5S)-5-methyl-1-[8-(trifluoromethyl)quinolin-5-yl]piperidin-3-yl]butanamide], the IC50 is less than 1000 nM.

With `C[C@H]1C[C@@H](NC(=O)CC2CCN(C)C2)CN(c2ccc(C(F)F)c3nccnc23)C1` (stereo partly drawn) [Compound 319, N-[(3R,5S)-1-[8-(difluoromethyl)quinoxalin-5-yl]-5-methylpiperidin-3-yl]-2-(1-methylpyrrolidin-3-yl)acetamide], the IC50 was less than 1000 nM.

As to `C[C@H]1C[C@@H](N(C)C(=O)CC(C)(C)N)CN(c2ccc(C(F)(F)F)c3ncccc23)C1` [Compound 465, 3-Amino-3,N-dimethyl-N-[(3R,5S)-5-methyl-1-(8-trifluoromethyl-quinolin-5-yl)-piperidin-3-yl]-butyramide], the IC50 was less than 1000 nM.

For the compound `C[C@@H]1CN(c2ccnc3nccnc23)C[C@H](C)O1` [Compound 43, (2S,6R)-2,6-dimethyl-4-(pyrido[2,3-b]pyrazin-8-yl)morpholine], the IC50 was greater than 10000 nM.

As for `OC1CCC(NC2CC(C(F)(F)F)CN(c3ccnc4nccnc34)C2)CC1` (single isomer, unassigned) [Compound 93, cis,cis-4-((1-(pyrido[2,3-b]pyrazin-8-yl)-5-(trifluoromethyl)piperidin-3-yl)amino)cyclohexanol], the IC50 was greater than 10000 nM.

Consider `C[C@H]1C[C@@H](NC(=O)C(C)(C)C2CCN(C)CC2)CN(c2ccc(C(F)(F)F)c3ncccc23)C1` [Compound 351, 2-methyl-N-[(3R,5S)-5-methyl-1-[8-(trifluoromethyl)quinolin-5-yl]piperidin-3-yl]-2-(1-methylpiperidin-4-yl)propanamide], for which the IC50 is less than 1000 nM.

With `C[C@H]1C[C@@H](NC(=O)CC2CN(C)C2)CN(c2ccc(C#N)c3nccnc23)C1` [Compound 359, N-[(3R,5S)-1-(8-cyanoquinoxalin-5-yl)-5-methylpiperidin-3-yl]-2-(1-methylazetidin-3-yl)acetamide], the IC50 is less than 1000 nM.

With `CCN(CC)CCNCC1CCN(c2ccc(C#N)c3ncccc23)CC1` [Compound 401, 5-{4-[(2-Diethylamino-ethylamino)-methyl]-piperidin-1-yl}-quinoline-8-carbonitrile], the IC50 lay in the range of 1000 to 10000 nM.

`O=C(NC1CN(c2ccc(C(F)(F)F)c3ncccc23)CC(F)(F)C1)C(O)C1CC1` (stereo not drawn) [Compound 513, 2-Cyclopropyl-N-[5,5-difluoro-1-(8-trifluoromethyl-quinolin-5-yl)-piperidin-3-yl]-2-hydroxy-acetamide]: the IC50 fell in the range of 1000 to 10000 nM.

With `C[C@H]1C[C@@H](NC(=O)CC(F)(F)F)CN(c2ccnc3nccnc23)C1` [Compound 120, 3,3,3-trifluoro-N-[(3R,5S)-5-methyl-1-[pyrido[2,3-b]pyrazin-8-yl]piperidin-3-yl]propanamide], the IC50 was greater than 10000 nM.

For `CC(C)[C@H](O)C(=O)N[C@@H]1C[C@H](C(F)(F)F)CN(c2ccnc3nccnc23)C1` [Compound 89, (2S)-2-hydroxy-3-methyl-N-[(3R,5S)-1-[pyrido[2,3-b]pyrazin-8-yl]-5-(trifluoromethyl)piperidin-3-yl]butanamide hydrochloride], the IC50 is greater than 10000 nM.

As to `C[C@H]1C[C@@H](NC(=O)CC(C)(C)N)CN(c2ccc(C(F)(F)F)c3ncccc23)C1` [Compound 514, 3-Amino-3-methyl-N-[(3R,5S)-5-methyl-1-(8-trifluoromethyl-quinolin-5-yl)-piperidin-3-yl]-butyramide], the IC50 was less than 1000 nM.
